Experimental data published in patent US7833795B2, “Assessment of cardiovascular risk using isoprostane biomarkers and COX-2 selective inhibitors” (The Trustees of the University of Pennsylvania, priority 2004, dated 2010).

What was measured:
Assay type in all cases: in vivo, rat
[1] = system: Male Fisher 344 rats; assay: Comet assay of blood leucocyte DNA; conditions: CCl4 120 and 1200 mg/kg; 2, 7, 16 h
Experimental: (§1) Animals and treatment protocol: Male Fisher 344 rats (260-280 g) obtained from Charles River Laboratories (Raleigh, N.C.) were used in all experiments. The animals were housed three to a cage. Autoclaved hardwood bedding was used in solid-bottom polycarbonate cages with filter tops. Animal rooms were maintained at 20-25° C. with 35-70% relative humidity with alternating 12-hour light and dark cycles. The rats had free access to deionized, reverse-osmosis-treated water and received autoclaved NIH 31 rodent chow (Zeigler Bros., Gardners, Pa.) ad libitum. For all experiments, rats were fasted overnight and then administered intraperitoneal injections of carbon tetrachloride in canola oil. Control rats received an equal volume of canola oil. Fasting continued throughout the experiment. Rats were anesthetized with Nembutal (0.1 ml/100 g body weight) and 5 ml blood was removed from the dorsal aorta proximal to its bifurcation into the common iliac arteries.
Carbon tetrachloride (CCL4) treatment: Animals from each of the three dose groups (Control-canola oil, 120 mg/kg CCl4 i.p. and 1200 mg/kg CCl4 i.p.) were investigated at three time points (2, 7, and 16 hours after CCl4 injection). Indomethacin-pretreated rats were also investigated at the same three time points, and the meclofenamic acid-pretreated rats were investigated at one time point (7 hours). […]

[2] = system: Male Fisher 344 rats; assay: Plasma MDA by GC/NICI-MS; conditions: for MDA (by GC-M5): plasma
Experimental: as §1
(§2) Indomethacin pretreatment: The indomethacin regimen used has been previously shown to inhibit COX activity in rats by 90% (dose of 5 mg/kg s.c. 24 hours, 12 hours, and 2 hours prior to the injection of CCl4) (Jackson, 1989, J. Pharmacol. Exp. Ther. 250: 9-21). An additional booster dose was injected 8 hours after the last injection of CCl4 for the measurements performed 16 hours after treatment with CCl4.
(§3) Carbon tetrachloride (CCL4) treatment: Animals from each of the three dose groups (Control-canola oil, 120 mg/kg CCl4 i.p. and 1200 mg/kg CCl4 i.p.) were investigated at three time points (2, 7, and 16 hours after CCl4 injection). Indomethacin-pretreated rats were also investigated at the same three time points, and the meclofenamic acid-pretreated rats were investigated at one time point (7 hours). Each group consisted of five rats for each analysis, except the meclofenamic acid pretreatment group which consisted of six rats. Animal treatment, sample preparation, assessment of liver histology and serum enzyme activities are described elsewhere (Kadiiska et al., 2000, Free Radic. Biol. Med. 28: 838-845; Jackson, 1989, J. Pharmacol. Exp. Ther. 250: 9-21) and were carried out at NIEHS, Research Triangle Park, N.C.
(§4) Plasma sample preparation: Blood (5 ml) was drawn through single draw Vacutainer® needles (21 Gauge) into open Vacutainer® blood collection tubes containing heparin. The tubes were gently inverted 2-3 times for mixing and immediately placed on ice. Blood was centrifuged (2,000 rpm for 10 minutes at 4° C.) no more than 30 minutes after collection, and the plasma was collected, frozen on dry ice and stored at −70° C.
Plasma MDA concentrations were also measured by using gas chromatography/negative ion chemical ionization mass spectroscopy (GC/NICI-MS) as described by Yeo et al. (Yeo et al., 1994, Anal. Biochem. 220: 391-396). The stable isotope internal standard [^2H2] MDA and an antioxidant (2,6-tert-butyl-4-methylphenol) were added to the plasma samples. The samples were then incubated at room temperature in 6.6 mol H2SO4 for 10 minutes to hydrolyze the aldehydes from the proteins. Plasma MDA was converted to a stable pentafluorophenyl hydrazine derivative which was quantified by using the GC-MS in the negative chemical ionization mode. The assay was performed at Children's Hospital Oakland Research Institute, Oakland, Calif.

[3] = system: Male Fisher 344 rats; assay: Urinary MDA by HPLC with spectrophotometry; conditions: for MDA (by HPLC with spectrophotometry): urine
Experimental: as §1, §2
Meclofenamic acid pretreatment: Meclofenamic acid was injected at a dose of 5 mg/kg i.p. 12 h and 2 h prior to the injection of CCl4.
as §3
Urine sample preparation: The day prior to treatment, both experimental and control animals were placed in stainless steel metabolic cages especially designed for urine collection. For Experimental Example 2, animals were placed in metabolic cages immediately after the last injection of indomethacin or meclofenamic acid. Urine was collected (in dark vials) from the animals during the following intervals: 2 to 7 hours and 7 to 16 hours after CCl4 or canola oil (controls) treatment. Urine samples from indomethacin-pretreated rats were collected from 2 to 7 hours and 7 to 16 hours after the injection of CCl4, whereas samples from meclofenamic-acid-pretreated rats were collected only from 2 to 7 hours after the injection. All urine samples were immediately frozen on dry ice and stored at −70° C.
Urinary MDA was analyzed using high pressure liquid chromatography (HPLC). To 500 μl urine samples, 25 μl BHT and 750 μl 0.5% TBA solution were added, in this order. Samples were incubated at 60° C. for 60 minutes. After cooling, chloroform (750 μl) was added and mixed well. Following centrifugation, the aqueous layer was removed and used for HPLC analysis (column […]; mobile phase, 6:4(v/v) 0.04 M acetate buffer (pH 5.5)/MeOH; detection, 532 nm). The procedure was developed and performed by OXIS Research, Portland, Oreg.

[4] = system: Male Fisher 344 rats; assay: Plasma methionine sulfoxidation
Experimental: as §1, §3, §4
Methionine sulfoxidation was measured according to Levine et al. (1996, Proc. Natl. Acad. Sci. USA 93: 15036-15040). In brief, serum samples were hydrolyzed with HCl. The methionine sulfoxide residue was converted to methionine, which represents the methionine sulfoxide level in the protein. The samples were analyzed on a Beckman Model 7300 amino acid analyzer. The methionine concentrations were measured at Weill Medical College of Cornell University, New York, N.Y., USA.

SMILES: ClC(Cl)(Cl)Cl [CCl4, Carbon tetrachloride]
- Comet assay: % migrated DNA, tail length, tail moment [1]: statistically significant increase only at the low dose of CCl4 at 16 hours
- increase of plasma MDA (GC/NICI-MS) ([2]; 7 hours after CCl4): 3 fold
- MDA (by GC-M5) ([2]; CCl4 120 mg/kg i.p., 2 h): 0.41 µM
- MDA (by GC-M5) ([2]; CCl4 120 mg/kg i.p., 7 h): 0.35 µM
- MDA (by GC-M5) ([2]; CCl4 120 mg/kg i.p., 16 h): 0.22 µM
- MDA (by GC-M5) ([2]; CCl4 1200 mg/kg i.p., 2 h): 1.35 µM
- MDA (by GC-M5) ([2]; CCl4 1200 mg/kg i.p., 7 h): 0.36 µM
- MDA (by GC-M5) ([2]; CCl4 1200 mg/kg i.p., 16 h): 0.23 µM
- increase of plasma MDA compared to controls (GC/NICI-MS) ([2]; higher dose of CCl4, 2 hours): 12 fold
- MDA (by HPLC with spectrophotometry) ([3]; CCl4 120 mg/kg i.p., 7 h): 2.01 nmol/mg creatinine
- MDA (by HPLC with spectrophotometry) ([3]; CCl4 120 mg/kg i.p., 16 h): 1.54 nmol/mg creatinine
- MDA (by HPLC with spectrophotometry) ([3]; CCl4 1200 mg/kg i.p., 7 h): 2.61 nmol/mg creatinine
- MDA (by HPLC with spectrophotometry) ([3]; CCl4 1200 mg/kg i.p., 16 h): 2.16 nmol/mg creatinine
- increase of urinary MDA ([3]; higher dose of CCl4, urine collected 7 hours after treatment): 3 fold
- Methionine sulfoxide ([4]; CCl4 120 mg/kg i.p., 2 h): 2.3 % of total methionine
- Methionine sulfoxide ([4]; CCl4 120 mg/kg i.p., 7 h): 1.7 % of total methionine
- Methionine sulfoxide ([4]; CCl4 120 mg/kg i.p., 16 h): 3.1 % of total methionine
- Methionine sulfoxide ([4]; CCl4 1200 mg/kg i.p., 2 h): 1.8 % of total methionine
- Methionine sulfoxide ([4]; CCl4 1200 mg/kg i.p., 7 h): 1.1 % of total methionine
- Methionine sulfoxide ([4]; CCl4 1200 mg/kg i.p., 16 h): 1.7 % of total methionine
